The values below come from ChEMBL document CHEMBL1201862, “PubChem BioAssay data set” (2004).

Test systems include DMS-273; KM-20L2; LXFL 529; M19-MEL; XF498; DLD-1; DMS-114; HOP-18; RXF 631.
What all share (test): NCI-60 cell line screen, 48 h

The structures appear in SMILES notation.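 Five concentrations, 48 hours, 96-well plates. GI50: concentration for 50% inhibition of growth.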 The source made the active and inactive calls. Cut-off read from the data, not from the text of the source: active = GI50 up to about 1.1 µM and inactive = higher.

Regarding `C[s+]1c2ccccc2c2ccccc21`, the GI50 with DMS-273, in the experiment with KM-20L2, in the experiment with LXFL 529, in the experiment with M19-MEL and in the experiment with XF498 was > 100 µM (inactive) in each case.
On to `COc1cc(OC)c(Oc2cccc(OC)c2OC)c(OC)c1`, for which the GI50 in the experiment with DLD-1 was > 100 µM (inactive); with DMS-114, > 100 µM (inactive); with DMS-273, > 100 µM (inactive); in the experiment with HOP-18, 29.5 µM (inactive); in the experiment on KM-20L2 it was > 100 µM (inactive); in the experiment on LXFL 529, > 100 µM (inactive). Also, the GI50 in the experiment with M19-MEL and in the experiment with XF498 was > 100 µM (inactive) each time.
`COC(=O)/C(C#N)=C1\NC(=O)c2ccccc21`: the GI50 in the experiment on DLD-1, with DMS-114, in the experiment with DMS-273, with HOP-18, in the experiment on KM-20L2 and with LXFL 529 was > 100 µM (inactive) in each case. In addition, the GI50 with M19-MEL was > 100 µM (inactive).
On to `C#Cc1cccc(N2C(=O)CCC2=O)c1`, for which the GI50 in the experiment on DLD-1 was 17.9 µM (inactive); in the experiment on DMS-114, 14.8 µM (inactive); with DMS-273, 23.2 µM (inactive); in the experiment with HOP-18 it was 16.7 µM (inactive); with KM-20L2, 25.8 µM (inactive); with LXFL 529 it was 11.1 µM (inactive). Also, the GI50 in the experiment on M19-MEL was 19.5 µM (inactive); with RXF 631, 21.5 µM (inactive); in the experiment with XF498 it was 15 µM (inactive).
Regarding `CC(C)=CC(=O)CC(=O)C(=O)Nc1ccc(Cl)c(Cl)c1`, the GI50 in the experiment on DLD-1, in the experiment on DMS-114, in the experiment on DMS-273, in the experiment on KM-20L2, in the experiment with LXFL 529 and in the experiment with M19-MEL was > 100 µM (inactive) each time.
Regarding `N=C(N)NS(=O)(=O)c1ccc(NC(=O)c2cccc3c(Nc4ccc(S(=O)(=O)N=C(N)N)cc4)c4ccccc4nc23)cc1`, the GI50 with DLD-1 was 92.9 µM (inactive); in the experiment on DMS-114 it was 24.9 µM (inactive); with DMS-273 it was 55.2 µM (inactive); in the experiment with HOP-18, > 100 µM (inactive); in the experiment on KM-20L2, 37.5 µM (inactive); in the experiment with LXFL 529, 26.5 µM (inactive). Further, the figures for the GI50 in the experiment with M19-MEL, with RXF 631 and in the experiment on XF498 were 47.4 µM (inactive), > 100 µM (inactive) and > 100 µM (inactive), respectively.
In the case of `CC(O)CNC(=O)C(C)Oc1ccc(OCC2CCCCC2)cc1` (configuration not stated), the GI50 with DMS-114 was 46.3 µM (inactive); with DMS-273 it was > 100 µM (inactive); in the experiment with HOP-18 it was > 100 µM (inactive); in the experiment with LXFL 529, > 100 µM (inactive); in the experiment on M19-MEL it was > 100 µM (inactive); with XF498, > 100 µM (inactive).
`Clc1cccc(Cl)c1C1SCc2nc3ccccc3n21` (configuration not stated): the GI50 is 51.1 µM (inactive) in the experiment with DLD-1; 25.2 µM (inactive) with DMS-114; 14.6 µM (inactive) with DMS-273; > 100 µM (inactive) in the experiment with HOP-18; 43.2 µM (inactive) in the experiment with KM-20L2; > 100 µM (inactive) with LXFL 529. Further, the figures for the GI50 with M19-MEL, with RXF 631 and in the experiment on XF498 were > 100 µM (inactive), 15.4 µM (inactive) and > 100 µM (inactive), respectively.
Turning to `CC1(C)O[C@@H](CCl)C[C@H](C#N)O1`, the GI50 with DLD-1, with DMS-114, in the experiment on DMS-273, in the experiment on HOP-18, in the experiment on KM-20L2 and in the experiment on M19-MEL was > 100 µM (inactive) throughout. Moreover, in the experiment with XF498, the GI50 was > 100 µM (inactive).
For `CC[C@H](C)N(CCN)C(=O)c1cc2ccccc2c(-c2ccccc2Cl)n1`, the GI50 was 13.9 µM (inactive) with DMS-114, 13.6 µM (inactive) with DMS-273, 13.2 µM (inactive) in the experiment on KM-20L2 and 3.3 µM (inactive) in the experiment with LXFL 529.
Turning to `CC(C)(C)/N=C\N(C=C(c1ccccc1)c1ccccc1)C1CCCCC1`, the GI50 with DLD-1 was 23.1 µM (inactive); with DMS-114, 19.2 µM (inactive); in the experiment with DMS-273, 46.6 µM (inactive); with HOP-18, 52.2 µM (inactive); in the experiment with KM-20L2, 16.9 µM (inactive); in the experiment with M19-MEL, 44.2 µM (inactive). In the experiment on XF498, the GI50 was 16.6 µM (inactive).
Turning to `O=C1c2ccccc2C(=O)N1CC#CCO`, the GI50 in the experiment with DMS-273, in the experiment on LXFL 529, in the experiment on M19-MEL, with RXF 631 and in the experiment with XF498 was > 100 µM (inactive) in each case.
Turning to `CCN(CC)CCC(=O)NC1c2ccccc2Oc2c(C)cccc21` (configuration not stated), the GI50 in the experiment with DLD-1, in the experiment on DMS-114, in the experiment on DMS-273, in the experiment on LXFL 529, with M19-MEL and in the experiment with XF498 was > 100 µM (inactive) throughout.
On to `CC1=NOC(=O)/C1=C/c1cccc2ccccc12`, for which the GI50 in the experiment on DLD-1, in the experiment with DMS-114, in the experiment with DMS-273, with HOP-18, with KM-20L2 and in the experiment with LXFL 529 was > 100 µM (inactive) each time. For the same molecule, the GI50 in the experiment on M19-MEL was > 100 µM (inactive).
For `Cc1ccccc1NC(=O)C(=O)CC(=O)C1CCOC1=O` (configuration not stated), the GI50 in the experiment on DLD-1 was > 100 µM (inactive); with DMS-114, > 100 µM (inactive); with DMS-273 it was > 100 µM (inactive); in the experiment with HOP-18 it was 7.29 µM (inactive); in the experiment on KM-20L2 it was > 100 µM (inactive); with LXFL 529, > 100 µM (inactive). Further, the GI50 in the experiment with M19-MEL and in the experiment with XF498 was > 100 µM (inactive) each time.
As for `COC(=O)c1nc(NN)cc(O)c1CCCCCc1c(O)nc(NN)nc1C(=O)OC`, the GI50 with DLD-1 is > 100 µM (inactive); with DMS-114 it was > 95.1 µM (inactive); in the experiment on DMS-273 it was > 100 µM (inactive); in the experiment with HOP-18 it was > 100 µM (inactive); with KM-20L2 it was > 100 µM (inactive); in the experiment on LXFL 529 it was > 100 µM (inactive). In addition, the GI50 with M19-MEL and in the experiment on XF498 was > 100 µM (inactive) each time.
With `C/C1=C\[C@@H](O)C(=O)/C=C/C=C\c2csc(n2)[C@@H](C)NC(=O)C[C@@]2(CC1)[S+]([O-])SC(=O)[C@]2(C)O` (some centres not stated) [LEINAMYCIN], the GI50 with DLD-1 is 0.0209 µM (active); in the experiment with DMS-114 it was 0.0353 µM (active); in the experiment on DMS-273, 0.0135 µM (active); with HOP-18 it was 0.0301 µM (active); in the experiment on KM-20L2 it was 0.0881 µM (active); in the experiment on LXFL 529, 0.0139 µM (active). In addition, in the experiment on M19-MEL, the GI50 is 0.0344 µM (active).
`O=C(NCCCC/N=c1/cccccc1NCCCCNC(=O)OCc1ccccc1)OCc1ccccc1`: the GI50 was 12.6 µM (inactive) in the experiment on DLD-1; 8.11 µM (inactive) with DMS-114; 17.5 µM (inactive) in the experiment with DMS-273; 11 µM (inactive) in the experiment with KM-20L2; 20.2 µM (inactive) in the experiment with M19-MEL; 13.3 µM (inactive) with RXF 631. Moreover, the GI50 in the experiment with XF498 was 4.29 µM (inactive).
On to `Cn1ccnc1C(c1nccn1C)C(C)(C)[N+](=O)[O-]`, for which the GI50 in the experiment with DLD-1, with DMS-114, in the experiment with DMS-273, in the experiment with M19-MEL, in the experiment with RXF 631 and in the experiment on XF498 was > 100 µM (inactive) throughout.
`CCOC(=O)/C(=C\c1ccc(N(CCC#N)CCC#N)cc1C)NC(=O)/C=C/c1ccccc1`: the GI50 in the experiment with DLD-1, in the experiment on DMS-114, with DMS-273, with KM-20L2, in the experiment on LXFL 529 and in the experiment on M19-MEL was > 100 µM (inactive) throughout. Besides, in the experiment on XF498, the GI50 was > 100 µM (inactive).
On to `O=C1OCC/C1=N/O`, for which the GI50 in the experiment with DLD-1, in the experiment on DMS-114, in the experiment with DMS-273, in the experiment with HOP-18, in the experiment with KM-20L2 and in the experiment on LXFL 529 was > 100 µM (inactive) throughout. Also, in the experiment on M19-MEL, the GI50 was > 100 µM (inactive).
Regarding `COc1ccc(/C=C(\NC(=O)c2ccccc2)c2nc3ccccc3[nH]2)cc1OC`, the GI50 with DLD-1 was > 100 µM (inactive); in the experiment on DMS-114, > 100 µM (inactive); with HOP-18, > 100 µM (inactive); with KM-20L2, > 100 µM (inactive); in the experiment on LXFL 529 it was 76 µM (inactive); in the experiment with M19-MEL, > 100 µM (inactive). Further, the GI50 with RXF 631 and in the experiment on XF498 was > 100 µM (inactive) in each case.
Consider `COc1ccc(Nc2nc3ccc(C(F)(F)F)cc3nc2-c2ccccc2)cc1OC`, for which the GI50 with DLD-1 was 30.5 µM (inactive); in the experiment with DMS-114, 38.7 µM (inactive); in the experiment with DMS-273, 32.4 µM (inactive); in the experiment on LXFL 529 it was 43.2 µM (inactive); in the experiment with RXF 631, 39.6 µM (inactive); in the experiment on XF498, 49.1 µM (inactive).
On to `CC(C)(C)[Si](Nc1ccccc1)(c1ccccc1)c1ccccc1`, for which the GI50 in the experiment on DMS-114 is 13.2 µM (inactive); with DMS-273, 13.6 µM (inactive); with HOP-18, 13.7 µM (inactive); in the experiment on KM-20L2, 15.8 µM (inactive); in the experiment with M19-MEL, 14.2 µM (inactive); in the experiment on RXF 631, 15.5 µM (inactive). Also, the GI50 in the experiment with XF498 was 14.6 µM (inactive).
In the case of `Cn1cnc([N+](=O)[O-])c1Sc1n[nH]c(-c2ccc(Cl)cc2)n1`, the GI50 in the experiment on DLD-1 was 18.4 µM (inactive); in the experiment with DMS-114, 18.2 µM (inactive); in the experiment on DMS-273 it was 16.9 µM (inactive); with HOP-18, 1.47 µM (inactive); in the experiment with LXFL 529 it was 11.7 µM (inactive); with M19-MEL it was 19 µM (inactive). For the same molecule, the GI50 with RXF 631 is 20.7 µM (inactive); in the experiment on XF498, 10.1 µM (inactive).
Regarding `OCC1OC2c3ccccc3COC2C1OCc1ccccc1` (configuration not stated), the GI50 is > 100 µM (inactive) in the experiment on DLD-1; 59.4 µM (inactive) in the experiment on DMS-114; > 100 µM (inactive) in the experiment on HOP-18; > 100 µM (inactive) in the experiment with KM-20L2; 87.7 µM (inactive) with LXFL 529; > 100 µM (inactive) with M19-MEL. Further, the GI50 in the experiment with RXF 631 was > 100 µM (inactive); in the experiment with XF498, 49.2 µM (inactive).
